Earlier results in US6365601B1, “Process for extraction of piperine from piper species” (Council of Scientific and Industrial Research, priority 1999, dated 2002).

Details: Reen and Rashmet, J. Ethnopharmacol., 1997

O=C(/C=C/C=C/c1ccc2c(c1)OCO2)N1CCCCC1 [Piperine]
chemoprotective effect against procarcinogens: potent chemoprotective effect
